Here are results for 20 compounds from patent US9346809B2 (LEO PHARMA A/S, priority 2009, dated 2016).

Common to all, as to type: biochemical
The target in assay [1] is T1, JAK1 (aa 850-1154, catalytic domain, GST-tag) (Homo sapiens, UniProt P23458).
T1 construct: JAK1 (aa 850-1154) and TYK2 (aa 871-1187) are expressed with an N-terminally fused GST-tag; GST (N); purchased Carna Biosciences, Inc; host or cells: baculovirus expression system
Description: JAK kinase assay (HTRF, phosphorylation of TK substrate-biotin), JAK1. The note with it: HTRF assay, ATP at Km (7 μM); read-out: JAK1 kinase inhibitory activity (EC50 indicator). The method, boiled down: (§1)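 EC50 values come from HTRF detection of phospho-biotin-TK peptide (1 μM) after 20-30 min RT reactions in Hepes pH 7.0 buffer with 0.75% DMSO. ATP was at Km for each enzyme: 7 μM JAK1, 4 μM JAK2, 2 μM JAK3, 13 μM TYK2. SEB (50 nM) was added for JAK1 and TYK2 only.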

The target in assay [2] is T2, JAK2 (catalytic domain, His-tag) (Homo sapiens, UniProt O60674).
T2 construct: All four purified enzymes contain only the catalytic domain; His (N); purchased Carna Biosciences, Inc; host or cells: baculovirus expression system
T2 sequence (O60674 849-1124 limits assumed): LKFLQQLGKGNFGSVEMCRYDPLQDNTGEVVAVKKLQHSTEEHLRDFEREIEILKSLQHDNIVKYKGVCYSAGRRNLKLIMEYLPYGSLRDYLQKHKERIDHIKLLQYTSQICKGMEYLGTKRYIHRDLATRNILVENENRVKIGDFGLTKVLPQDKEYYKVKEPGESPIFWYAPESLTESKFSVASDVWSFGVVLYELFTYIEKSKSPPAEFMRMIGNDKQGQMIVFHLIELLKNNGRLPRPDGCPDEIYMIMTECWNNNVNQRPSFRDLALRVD
Description: JAK kinase assay (HTRF, phosphorylation of TK substrate-biotin), JAK2. The note with it: HTRF assay, ATP at Km (4 μM); read-out: JAK2 kinase inhibitory activity (EC50 indicator). The method, boiled down:
as §1

Assay [3] concerns the target T3, JAK3 (catalytic domain, His-tag) (Homo sapiens, UniProt P52333).
T3 construct: All four purified enzymes contain only the catalytic domain; His (N); purchased Carna Biosciences, Inc; host or cells: baculovirus expression system
Description: JAK kinase assay (HTRF, phosphorylation of TK substrate-biotin), JAK3. The note with it: HTRF assay, ATP at Km (2 μM); read-out: JAK3 kinase inhibitory activity (EC50 indicator). The method, boiled down: as §1
In general terms: TR-FRET usually uses a lanthanide donor and a delayed reading to cut background.

Assay [4] deals with T4, TYK2 (aa 871-1187, catalytic domain, GST-tag) (Homo sapiens, UniProt P29597).
T4 construct: JAK1 (aa 850-1154) and TYK2 (aa 871-1187) are expressed with an N-terminally fused GST-tag; GST (N); purchased Carna Biosciences, Inc; host or cells: baculovirus expression system
T4 sequence (P29597 871-1187): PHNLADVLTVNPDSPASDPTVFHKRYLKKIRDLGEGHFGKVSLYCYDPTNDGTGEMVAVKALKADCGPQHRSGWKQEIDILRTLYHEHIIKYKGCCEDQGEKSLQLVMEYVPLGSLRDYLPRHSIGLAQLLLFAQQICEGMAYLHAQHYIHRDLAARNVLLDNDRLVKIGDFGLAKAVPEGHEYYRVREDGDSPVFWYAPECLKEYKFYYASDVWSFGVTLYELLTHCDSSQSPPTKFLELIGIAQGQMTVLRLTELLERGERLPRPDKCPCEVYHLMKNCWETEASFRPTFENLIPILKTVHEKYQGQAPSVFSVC
Description: JAK kinase assay (HTRF, phosphorylation of TK substrate-biotin), TYK2. The settings on record: HTRF assay, ATP at Km (13 μM); read-out: TYK2 kinase inhibitory activity (EC50 indicator). The method, boiled down:
as §1

T3 sequence (P52333 822-1111 limits assumed): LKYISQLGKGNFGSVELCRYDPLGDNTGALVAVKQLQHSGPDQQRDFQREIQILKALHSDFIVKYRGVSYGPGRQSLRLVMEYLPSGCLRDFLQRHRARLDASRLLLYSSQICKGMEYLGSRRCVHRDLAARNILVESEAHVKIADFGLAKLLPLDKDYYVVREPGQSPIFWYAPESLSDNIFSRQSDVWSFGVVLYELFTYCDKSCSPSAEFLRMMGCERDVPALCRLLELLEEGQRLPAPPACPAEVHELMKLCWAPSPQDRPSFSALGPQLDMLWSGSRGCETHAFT
T1 sequence (P23458 850-1154): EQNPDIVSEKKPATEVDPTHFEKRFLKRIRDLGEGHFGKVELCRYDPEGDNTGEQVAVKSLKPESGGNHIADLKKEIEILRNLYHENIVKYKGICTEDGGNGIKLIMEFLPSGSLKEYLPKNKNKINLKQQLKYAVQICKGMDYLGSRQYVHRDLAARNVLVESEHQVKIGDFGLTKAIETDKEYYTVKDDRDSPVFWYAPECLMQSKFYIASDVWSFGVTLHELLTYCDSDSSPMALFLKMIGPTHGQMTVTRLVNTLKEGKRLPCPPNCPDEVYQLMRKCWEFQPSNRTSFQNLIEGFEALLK

Usually EC50 stands for the concentration giving half of the maximal effect. For `N#Cc1ccccc1CC(=O)N1CCN(c2ccnc3[nH]ccc23)CC12CC2` [Example 237, 2-{2-Oxo-2-[7-(1H-pyrrolo[2,3-b]pyridin-4-yl)-4,7-diaza-spiro[2.5]oct-4-yl]-ethyl}-benzonitrile], the EC50 in assay [1] is more than 500 nM; in assay [2] it was 100 to 500 nM; in assay [3], 100 to 500 nM; in assay [4] it was more than 500 nM.
For the compound `O=C(c1ccc(OC(F)(F)F)cc1)N1CCN(c2ccnc3[nH]ccc23)CC12CC2` [Example 238, [7-(1H-Pyrrolo[2,3-b]pyridin-4-yl)-4,7-diaza-spiro[2.5]oct-4-yl]-(4-trifluoromethoxy-phenyl)-methanone], the EC50 in assay [1] is less than 100 nM; in assay [2], 100 to 500 nM; in assay [3], more than 500 nM; in assay [4], more than 500 nM.
As to `CC(C)(C#N)C(=O)N1[C@@H]2CC[C@@H]1CN(c1ncnc3[nH]ccc13)C2` [Example 239, 2,2-Dimethyl-3-oxo-3-[3-(7H-pyrrolo[2,3-d]pyrimidin-4-yl)-3,8-diaza-bicyclo[3.2.1]oct-8-yl]-propionitrile], the EC50 in assay [1] was 100 to 500 nM; in assay [2], 100 to 500 nM; in assay [3] it was 100 to 500 nM; in assay [4], more than 500 nM.
With `O=C(c1ccccc1)N1[C@@H]2CC[C@@H]1CN(c1ncnc3[nH]ccc13)C2` [Example 240, Phenyl-[3-(7H-pyrrolo[2,3-d]pyrimidin-4-yl)-3,8-diaza-bicyclo[3.2.1]oct-8-yl]-methanone], the EC50 in assay [1] was less than 100 nM; in assay [2] it was less than 100 nM; in assay [3], 100 to 500 nM; in assay [4], more than 500 nM.
`O=C(c1ccccn1)N1[C@@H]2CC[C@@H]1CN(c1ncnc3[nH]ccc13)C2` [Example 241, Pyridin-2-yl-[3-(7H-pyrrolo[2,3-d]pyrimidin-4-yl)-3,8-diaza-bicyclo[3.2.1]oct-8-yl]-methanone]: the EC50 is less than 100 nM in assay [1], less than 100 nM in assay [2], 100 to 500 nM in assay [3] and more than 500 nM in assay [4].
On to `O=C(c1ccncc1)N1[C@@H]2CC[C@@H]1CN(c1ncnc3[nH]ccc13)C2` [Example 242, Pyridin-4-yl-[3-(7H-pyrrolo[2,3-d]pyrimidin-4-yl)-3,8-diaza-bicyclo[3.2.1]oct-8-yl]-methanone], for which the EC50 is less than 100 nM in assay [1], less than 100 nM in assay [2], 100 to 500 nM in assay [3] and more than 500 nM in assay [4].
Turning to `Cc1ccsc1C(=O)N1[C@@H]2CC[C@@H]1CN(c1ncnc3[nH]ccc13)C2` [Example 243, (3-Methyl-thiophen-2-yl)-[3-(7H-pyrrolo[2,3-d]pyrimidin-4-yl)-3,8-diaza-bicyclo[3.2.1]oct-8-yl]-methanone], the EC50 in assay [1] was 100 to 500 nM; in assay [2], less than 100 nM; in assay [3], 100 to 500 nM; in assay [4] it was more than 500 nM.
For the compound `O=C(c1cccc(OC(F)(F)F)c1)N1[C@@H]2CC[C@@H]1CN(c1ncnc3[nH]ccc13)C2` [Example 244, [3-(7H-Pyrrolo[2,3-d]pyrimidin-4-yl)-3,8-diaza-bicyclo[3.2.1]oct-8-yl]-(3-trifluoromethoxy-phenyl)-methanone], the EC50 was less than 100 nM in assay [1], less than 100 nM in assay [2], less than 100 nM in assay [3] and more than 500 nM in assay [4].
For `Cc1c(C(=O)N2[C@H]3CC[C@H]2CN(c2ncnc4[nH]ccc24)C3)sc2ccccc12` [Example 245, (3-Methyl-benzo[b]thiophen-2-yl)-[3-(7H-pyrrolo[2,3-d]pyrimidin-4-yl)-3,8-diaza-bicyclo[3.2.1]oct-8-yl]-methanone], the EC50 in assay [1] was less than 100 nM; in assay [2], less than 100 nM; in assay [3], less than 100 nM; in assay [4], more than 500 nM.
In the case of `O=C(c1csc2ccccc12)N1[C@H]2CC[C@H]1CN(c1ncnc3[nH]ccc13)C2` [Example 246, Benzo[b]thiophen-3-yl-[3-(7H-pyrrolo[2,3-d]pyrimidin-4-yl)-3,8-diaza-bicyclo[3.2.1]oct-8-yl]-methanone], the EC50 in assay [1] was less than 100 nM; in assay [2], less than 100 nM; in assay [3] it was less than 100 nM; in assay [4], 100 to 500 nM.
As to `Cc1ccc2sc(C(=O)N3[C@@H]4CC[C@H]3CN(c3ncnc5[nH]ccc35)C4)cc2c1` [Example 247, (5-Methyl-benzo[b]thiophen-2-yl)-[3-(7H-pyrrolo[2,3-d]pyrimidin-4-yl)-3,8-diaza-bicyclo[3.2.1]oct-8-yl]-methanone], the EC50 was less than 100 nM in assay [1], less than 100 nM in assay [2], 100 to 500 nM in assay [3] and more than 500 nM in assay [4].
`N#CC1(C(=O)N2[C@@H]3CC[C@@H]2CN(c2ncnc4[nH]ccc24)C3)CCOCC1` [Example 248, 4-[3-(7H-Pyrrolo[2,3-d]pyrimidin-4-yl)-3,8-diaza-bicyclo[3.2.1]octane-8-carbonyl]-tetrahydro-pyran-4-carbonitrile]: the EC50 in assay [1] was 100 to 500 nM; in assay [2], less than 100 nM; in assay [3], 100 to 500 nM; in assay [4], more than 500 nM.
With `N#Cc1ccccc1C(=O)N1[C@@H]2CC[C@@H]1CN(c1ncnc3[nH]ccc13)C2` [Example 249, 2-[3-(7H-Pyrrolo[2,3-d]pyrimidin-4-yl)-3,8-diaza-bicyclo[3.2.1]octane-8-carbonyl]-benzonitrile], the EC50 in assay [1] is 100 to 500 nM; in assay [2] it was less than 100 nM; in assay [3], 100 to 500 nM; in assay [4] it was more than 500 nM.
Take `N#Cc1ccccc1CC(=O)N1[C@@H]2CC[C@@H]1CN(c1ncnc3[nH]ccc13)C2` [Example 250, 2-{2-Oxo-2-[3-(7H-pyrrolo[2,3-d]pyrimidin-4-yl)-3,8-diaza-bicyclo[3.2.1]oct-8-yl]-ethyl}-benzonitrile]: the EC50 in assay [1] is 100 to 500 nM; in assay [2], 100 to 500 nM; in assay [3], 100 to 500 nM; in assay [4], more than 500 nM.
With `O=C(c1ccc(OC(F)(F)F)cc1)N1[C@@H]2CC[C@@H]1CN(c1ncnc3[nH]ccc13)C2` [Example 251, [3-(7H-Pyrrolo[2,3-d]pyrimidin-4-yl)-3,8-diaza-bicyclo[3.2.1]oct-8-yl]-(4-trifluoromethoxy-phenyl)-methanone], the EC50 is less than 100 nM in assay [1], 100 to 500 nM in assay [2], 100 to 500 nM in assay [3] and more than 500 nM in assay [4].
For `N#Cc1ccc(C(=O)N2C[C@@H]3C[C@H]2CN3c2ncnc3[nH]ccc23)cc1` [Example 258, 4-[5-(7H-Pyrrolo[2,3-d]pyrimidin-4-yl)-2,5-diaza-bicyclo[2.2.1]heptane-2-carbonyl]-benzonitrile], the EC50 in assay [1], in assay [2], in assay [3] and in assay [4] was more than 500 nM in each case.
Consider `Cc1ccc(C(=O)N2C[C@@H]3C[C@H]2CN3c2ncnc3[nH]ccc23)s1` [Example 265, (5-Methyl-thiophen-2-yl)-[5-(7H-pyrrolo[2,3-d]pyrimidin-4-yl)-2,5-diaza-bicyclo[2.2.1]hept-2-yl]-methanone], for which the EC50 in assay [1], in assay [2], in assay [3] and in assay [4] was more than 500 nM throughout.
Regarding `N#CC1(C(=O)N2C[C@@H]3C[C@H]2CN3c2ncnc3[nH]ccc23)CC1` [Example 270, 1-[5-(7H-Pyrrolo[2,3-d]pyrimidin-4-yl)-2,5-diaza-bicyclo[2.2.1]heptane-2-carbonyl]-cyclopropanecarbonitrile], the half-maximal effective concentration (EC50) in assay [1], in assay [2], in assay [3] and in assay [4] was more than 500 nM each time.
As for `N#Cc1ccc(CC(=O)N2C[C@@H]3C[C@H]2CN3c2ncnc3[nH]ccc23)cc1` [Example 278, 4-{2-Oxo-2-[5-(7H-pyrrolo[2,3-d]pyrimidin-4-yl)-2,5-diaza-bicyclo[2.2.1]hept-2-yl]-ethyl}-benzonitrile], the EC50 in assay [1], in assay [2], in assay [3] and in assay [4] was more than 500 nM throughout.
`COc1cnc2[nH]ccc2c1N1CCN(C(=O)c2ccccc2)C2(CC2)C1` [Example 283, [7-(5-Methoxy-1H-pyrrolo[2,3-b]pyridin-4-yl)-4,7-diaza-spiro[2.5]oct-4-yl]-phenyl-methanone]: the EC50 is more than 500 nM in assay [1], 100 to 500 nM in assay [2], 100 to 500 nM in assay [3] and more than 500 nM in assay [4].
